System: Lawsonia intracellularis
Assay: Fecal PCR for L. intracellularis in pigs after controlled exposure
Format: in vivo
Details: day 28, after 14 days of MECADOX 50 g/ton in feed started 14 days post inoculation
Text: Four groups of pigs totaling 1409 pigs, between 8 and 10 weeks of age and sourced from a single nursery site, were moved to a finishing barn containing four separate rooms. The barn was filled over four consecutive weeks, filling one room per week. Each group of approximately 350 pigs was weighed as a group before placement into a barn room. The four rooms were alternately assigned to two treatment groups, inoculated (T1) and non-inoculated (T2). Sixteen animals per room were randomly selected and individually identified with ear tags.
On day 0, T1 pigs received inoculum of mucosal homogenate from PE-diseased intestine. Samples of inoculum were submitted to a diagnostic lab for quantification of L. intracellularis organisms before administration. The inoculum was delivered to each pen through the watering system and calibrated to deliver an average dose of 10^5±10 L. intracellularis organisms per pig over a 4-6 hour period. T2 pigs received no inoculum.
All pigs received MECADOX (carbadox) (50 g/ton) for at least 14 days in their nursery diets and up until day −3. Non-medicated feed was fed days −3 to 14 (exposure period) to both treatment groups. MECADOX (carbadox) 50 grams/ton medicated feed was fed to all pigs on days 14 to 28. From day 28 to end of study, all pigs received non-medicated feed. […]

COC(=O)N/N=C/c1c[n+]([O-])c2ccccc2[n+]1[O-] [MECADOX (carbadox), carbadox]
sampled, infected pigs negative by fecal PCR for L. intracellularis: 100%

Reference: US8142760B2, “Vaccination for Lawsonia intracellularis” (priority 2008, dated 2012)
